The subject of this assay is T1, MzmL.
T1 construct: full-length ORF (304 residues, predicted 16-residue signal peptide MKKLIILLITLSLFVA included in the clone), N-terminal His6 tag kept (pET-28a), E. coli BL21(DE3), Ni-NTA, ~35 kDa
Description: pH-indicator (bromothymol blue) assay of lactone hydrolysis, OD630, Michaelis-Menten fit. The settings on record: 2.5 mM MOPS pH 7.1; 25°C in methods, 28°C in table footnote; 5 nM enzyme; read-out: Km (mM)/Mean ± SD. The format is biochemical, Mesoflavibacter zeaxanthinifaciens. The source says: pH-indicator (bromothymol blue) assay of lactone hydrolysis, OD630, Michaelis-Menten fit on MzmL

Turning to `CCCCCC(=O)N[C@H]1CCOC1=O` [C6-HSL], the Km amounted to 0.39 ± 0.11 mM.
Under `CCCCCCCCCC(=O)N[C@H]1CCOC1=O` [C10-HSL] stands 0.04 ± 0.01 mM.
In the case of `CCCCCCCC(=O)CC(=O)N[C@H]1CCOC1=O` [3-oxo-C10-HSL], the Km was determined as 0.12 ± 0.03 mM.
With `CCCCCC(=O)CC(=O)N[C@H]1CCOC1=O` [3-oxo-C8-HSL] the figure was 0.46 ± 0.21 mM.
Consider `CCCC(=O)CC(=O)N[C@H]1CCOC1=O` [3-oxo-C6-HSL], for which the Km is 0.08 ± 0.06 mM.

Values taken from PMC11112094, “MzmL, a novel marine derived N-acyl homoserine lactonase from Mesoflavibacter zeaxanthinifaciens that attenuates Pectobacterium carotovorum subsp. carotovorum virulence” (Frontiers in Microbiology, 2024).
